Key:
[1] = Compound toxicity, ATPLite total ATP levels; format: cell-based; conditions: human, HepAD38 cells; 15,000 cells/well, three days after compound addition; 50% reduction of total ATP levels relative to no drug controls
Protocol: Methods: HepAD38 cells are maintained as previously reported (Ladner et al, Antimicrob. Agents Chemother. 1997, […], 1715). Briefly, cells are passaged upon attaining confluency in DMEM/F12 media in the presence of 10% FBS, Penn/Strep, 250 μg/mL G418, and 1 ug/ml tetracycline. Novel compounds are screened by first washing cells three times with PBS to remove tetracycline, and plating in 96 well plates at 35,000 cells/well. Compounds dissolved in DMSO are then diluted 1:200 into wells containing cells. Five days after compound addition, material is harvested for analysis. For an extended 8 day analysis, cells are plated and treated as described above, but media and compound are refreshed on d2 and d5 post initial treatment.
Compound toxicity is evaluated by seeding cells at 15,000 cells/well and treating with compound as described above. Three days after compound addition, cells are treated with ATPLite reagent and compound concentrations that reduce total ATP levels in wells by 50% relative to no drug controls (CC50) are reported; CC50 ranges are as follows: A>30 μM; B 10-30 μM; C<10 μM.

[2] = system: HBV; assay: HepAD38 antiviral assay: reduction of viral product accumulation (virion DNA by qPCR, HBsAg or HBeAg by ELISA); format: cell-based; conditions: Hepatitis B virus, 120 h; HepAD38 cells, five days after compound addition; 50% reduction of viral product accumulation relative to no drug controls; read-out: HepAD38 EC50
Outline: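 Tetracycline-washed HepAD38 cells treated with compound (DMSO diluted 1:200) for 5 days, or 8 days with media and compound refreshed on d2 and d5. Virion DNA from lysates quantified by qPCR; HBsAg or HBeAg by ELISA. EC50 is the concentration giving 50% reduction versus no-drug controls, reported as ranges A<1 μM, B 1-10 μM, C>10 μM.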

COC(=O)[C@H]1CCN(S(=O)(=O)c2cc(-c3ncc(-c4ccc(F)c(Br)c4)[nH]3)ccc2Cl)C1 [Example 58]
CC50 at 3 days [1]: > 30 µM
EC50 [2]: 1 to 10 µM

O=S(=O)(c1cc(-c2nc(-c3ccc(Br)cc3)c[nH]2)ccc1Cl)N1CCC(O)CC1 [Example 66]
CC50 at 3 days [1]: 10 to 30 µM
EC50 [2]: < 1 µM

CC(C)OC(=O)NCCCNS(=O)(=O)c1cc(-c2nc(-c3ccc(Br)c(F)c3)c[nH]2)ccc1Cl [Example 140]
CC50 at 3 days [1]: > 30 µM
EC50 [2]: < 1 µM

COC1CCN(S(=O)(=O)c2cc(-c3ncc(-c4ccc(F)c(Br)c4)[nH]3)ccc2Cl)CC1 [Example 39]
CC50 at 3 days [1]: 10 to 30 µM
EC50 [2]: < 1 µM

N#Cc1cc(-c2cnc(-c3ccc(Cl)c(S(=O)(=O)N4CCC(O)CC4)c3)[nH]2)ccc1F [Example 22]
CC50 at 3 days [1]: > 30 µM
EC50 [2]: < 1 µM

COC(=O)[C@@H](NS(=O)(=O)c1cc(-c2ncc(-c3ccc(F)c(Br)c3)[nH]2)ccc1Cl)C(C)C [Example 60]
CC50 at 3 days [1]: 10 to 30 µM
EC50 [2]: 1 to 10 µM

N#Cc1cccc(-c2c[nH]c(-c3ccc(Cl)c(S(=O)(=O)N4CCC(O)CC4)c3)n2)c1 [Example 92]
CC50 at 3 days [1]: > 30 µM
EC50 [2]: 1 to 10 µM

O=S(=O)(c1cc(-c2nc(-c3ccc(Br)c(F)c3)c[nH]2)ccc1Cl)N1CC(O)C1 [Example 108]
CC50 at 3 days [1]: > 30 µM
EC50 [2]: 1 to 10 µM

O=S(=O)(c1cc(-c2ncc(-c3cccs3)[nH]2)ccc1Cl)N1CCC(O)CC1 [Example 21]
CC50 at 3 days [1]: > 30 µM
EC50 [2]: < 1 µM

Cc1cccc(-c2c[nH]c(-c3ccc(Cl)c(S(=O)(=O)N4CCC(O)CC4)c3)n2)c1 [Example 91]
CC50 at 3 days [1]: > 30 µM
EC50 [2]: 1 to 10 µM

O=S(=O)(c1cc(-c2ncc(-c3cccc(F)c3)[nH]2)ccc1Cl)N1CCC(O)CC1 [Example 49]
CC50 at 3 days [1]: 10 to 30 µM
EC50 [2]: < 1 µM

C#Cc1ccc(-c2c[nH]c(-c3ccc(Cl)c(S(=O)(=O)N4CCC(O)CC4)c3)n2)cc1F [Example 102]
CC50 at 3 days [1]: > 30 µM
EC50 [2]: 1 to 10 µM

O=S(=O)(c1cc(-c2nc(-c3cccc(C(F)(F)F)c3)c[nH]2)ccc1Cl)N1CCC(O)CC1 [Example 94]
CC50 at 3 days [1]: 10 to 30 µM
EC50 [2]: < 1 µM

O=S(=O)(NCCCO)c1cc(-c2ncc(-c3ccc(F)c(Br)c3)[nH]2)ccc1Cl [Example 43]
CC50 at 3 days [1]: 10 to 30 µM
EC50 [2]: < 1 µM

O=S(=O)(c1cc2nc(-c3ccccc3)[nH]c2cc1Cl)N1CCC(O)CC1 [Example 2]
CC50 at 3 days [1]: < 10 µM
EC50 [2]: > 10 µM

CC(C)(C)OC(=O)NCCNS(=O)(=O)c1cc(-c2nc(-c3ccc(Br)c(F)c3)c[nH]2)ccc1Cl [Example 146]
CC50 at 3 days [1]: > 30 µM
EC50 [2]: < 1 µM

O=S(=O)(c1cc(-c2ncc(-c3ccc(F)c(F)c3)[nH]2)cs1)N1CCC(O)CC1 [Example 7]
CC50 at 3 days [1]: > 30 µM
EC50 [2]: 1 to 10 µM

N#Cc1ccc(-c2cnc(-c3ccc(Cl)c(S(=O)(=O)N4CCC(O)CC4)c3)[nH]2)cc1F [Example 47]
CC50 at 3 days [1]: > 30 µM
EC50 [2]: < 1 µM

O=S(=O)(c1cc(-c2nc(-c3ccc(Br)c(F)c3)c[nH]2)ccc1Cl)N1CCC(O)(CO)CC1 [Example 133]
CC50 at 3 days [1]: > 30 µM
EC50 [2]: < 1 µM

Cc1ccc(-c2c[nH]c(-c3ccc(Cl)c(S(=O)(=O)N4CCC(O)CC4)c3)n2)cc1F [Example 73]
CC50 at 3 days [1]: > 30 µM
EC50 [2]: 1 to 10 µM

CC(O)C(C)(C)NS(=O)(=O)c1cc(-c2nc(-c3ccc(Br)c(F)c3)c[nH]2)ccc1Cl (stereo not shown) [Example 134]
CC50 at 3 days [1]: > 30 µM
EC50 [2]: < 1 µM

COC(=O)[C@@H]1CCCN1S(=O)(=O)c1cc(-c2ncc(-c3ccc(F)c(Br)c3)[nH]2)ccc1Cl [Example 36]
CC50 at 3 days [1]: > 30 µM
EC50 [2]: > 10 µM

O=S(=O)(c1cc(-c2nc(-c3cc(F)c(Br)c(F)c3)c[nH]2)ccc1Cl)N1CCC(O)CC1 [Example 131]
CC50 at 3 days [1]: > 30 µM
EC50 [2]: < 1 µM

CC(C)NS(=O)(=O)c1cc(-c2nc(-c3ccc(Br)c(F)c3)c[nH]2)ccc1Cl [Example 111]
CC50 at 3 days [1]: < 10 µM
EC50 [2]: < 1 µM

O=S(=O)(c1cc(-c2ncc(-c3ccc(F)c(Br)c3)[nH]2)ccc1Cl)N1CCC(O)CC1 [Example 14]
CC50 at 3 days [1]: 10 to 30 µM
EC50 [2]: < 1 µM

COC(=O)NCCCNS(=O)(=O)c1cc(-c2nc(-c3ccc(Br)c(F)c3)c[nH]2)ccc1Cl [Example 139]
CC50 at 3 days [1]: > 30 µM
EC50 [2]: < 1 µM

O=S(=O)(c1cc(-c2cnc(-c3ccc(F)c(F)c3)[nH]2)ccc1Cl)N1CCC(O)CC1 [Example 16]
CC50 at 3 days [1]: > 30 µM
EC50 [2]: 1 to 10 µM

O=S(=O)(c1cc(-c2nc(-c3ccc(Br)c(Br)c3)c[nH]2)ccc1Cl)N1CCC(O)CC1 [Example 135]
CC50 at 3 days [1]: > 30 µM
EC50 [2]: < 1 µM

O=S(=O)(c1cc(-c2nc(-c3ccc(Br)c(F)c3)c[nH]2)ccc1Cl)N1CCC(O)C1 (stereo not shown) [Example 109]
CC50 at 3 days [1]: < 10 µM
EC50 [2]: < 1 µM

O=S(=O)(c1cc(-c2ncc(-c3ccc(F)c(O)c3)[nH]2)ccc1Cl)N1CCC(O)CC1 [Example 65]
CC50 at 3 days [1]: > 30 µM
EC50 [2]: > 10 µM

CC(C)(C)OC(=O)NCCCNS(=O)(=O)c1cc(-c2ncc(-c3ccc(F)c(Br)c3)[nH]2)ccc1Cl [Example 56]
CC50 at 3 days [1]: < 10 µM
EC50 [2]: < 1 µM

O=S(=O)(c1cc(-c2nc(-c3ccc(C4CC4)cc3)c[nH]2)ccc1Cl)N1CCC(O)CC1 [Example 101]
CC50 at 3 days [1]: < 10 µM
EC50 [2]: < 1 µM

O=S(=O)(c1cc(-c2ncc(-c3cccnc3)[nH]2)ccc1Cl)N1CCC(O)CC1 [Example 50]
CC50 at 3 days [1]: > 30 µM
EC50 [2]: 1 to 10 µM

O=S(=O)(c1c(Cl)ccc2c(-c3cc(F)c(F)c(F)c3)n[nH]c12)N1CCC(O)CC1 [Example 5]
CC50 at 3 days [1]: > 30 µM
EC50 [2]: 1 to 10 µM

O=S(=O)(c1cc(-c2cc(-c3ccc(F)c(Br)c3)[nH]n2)ccc1Cl)N1CCC(O)CC1 [Example 24]
CC50 at 3 days [1]: < 10 µM
EC50 [2]: 1 to 10 µM

CC(=O)OC1CCN(S(=O)(=O)c2cc(-c3nc(-c4ccc(F)c(Br)c4)c[nH]3)ccc2Cl)CC1 [Example 35]
CC50 at 3 days [1]: 10 to 30 µM
EC50 [2]: 1 to 10 µM

O=S(=O)(c1cc(-c2n[nH]c3ccccc23)ccc1Cl)N1CCC(O)CC1 [Example 6]
CC50 at 3 days [1]: > 30 µM
EC50 [2]: > 10 µM

O=S(=O)(c1cc(-c2ncc(-c3ccc(F)c(Br)c3)[nH]2)ccc1Cl)N1CCCCC1 [Example 37]
CC50 at 3 days [1]: < 10 µM
EC50 [2]: < 1 µM

COCCN(C)S(=O)(=O)c1cc(-c2nc(-c3ccc(Br)c(F)c3)c[nH]2)ccc1Cl [Example 105]
CC50 at 3 days [1]: > 30 µM
EC50 [2]: < 1 µM

CC(C)N(C)S(=O)(=O)c1cc(-c2nc(-c3ccc(Br)c(F)c3)c[nH]2)ccc1Cl [Example 112]
CC50 at 3 days [1]: > 30 µM
EC50 [2]: < 1 µM

Cc1ccccc1-c1c[nH]c(-c2ccc(Cl)c(S(=O)(=O)N3CCC(O)CC3)c2)n1 [Example 121]
CC50 at 3 days [1]: > 30 µM
EC50 [2]: 1 to 10 µM

O=S(=O)(c1cc(-c2nc(-c3ccc(Br)c(F)c3)c[nH]2)ccc1Cl)N1CCC(F)(F)CC1 [Example 124]
CC50 at 3 days [1]: < 10 µM
EC50 [2]: < 1 µM

O=S(=O)(c1cc(-c2ncc(-c3ccc(F)c(Br)c3)[nH]2)ccc1Cl)N1CCOCC1 [Example 42]
CC50 at 3 days [1]: 10 to 30 µM
EC50 [2]: < 1 µM

O=S(=O)(c1cc(-c2ncc(-c3ccc(F)c(F)c3)o2)ccc1Cl)N1CCC(O)CC1 [Example 26]
CC50 at 3 days [1]: > 30 µM
EC50 [2]: > 10 µM

O=S(=O)(c1cc(-c2nc(-c3cccc(C4CC4)c3)c[nH]2)ccc1Cl)N1CCC(O)CC1 [Example 136]
CC50 at 3 days [1]: > 30 µM
EC50 [2]: 1 to 10 µM

O=S(=O)(c1cc2nc(-c3cc(F)c(F)c(F)c3)[nH]c2cc1Cl)N1CCC(O)CC1 [Example 3]
CC50 at 3 days [1]: > 30 µM
EC50 [2]: > 10 µM

O=S(=O)(c1cc(-c2nc(-c3cc(F)c(F)c(F)c3)c[nH]2)ccc1Cl)N1CCC(O)CC1 [Example 30]
CC50 at 3 days [1]: 10 to 30 µM
EC50 [2]: 1 to 10 µM
